Earlier results in paper PMC5693832 (Ophthalmology and Therapy, 2017).

Assays:
platelets = conditions: humans
[1] = test system: IOP over a 24-h diurnal time period; conditions: for IOP reduction over the 24 h period, in words: 24-h diurnal period
IOP = conditions: 0.024%, summary of the clinical trials
[2] = test system: IOP in Japanese subjects with POAG or OHT; conditions: 0.024% every evening
[3] = test system: diurnal IOP in POAG or OHT patients; conditions: 0.006% to 0.040%, 28 days
[4] = test system: IOP in healthy Japanese subjects; conditions: 0.024% once daily for 14 days

| Structure (SMILES) | NO release after oral administration (platelets) | IOP reduction over the 24 h period, in words [1] | post treatment mean IOP (SD), nighttime ([1]; nighttime, baseline 25.7 (3.8) mmHg) | additional IOP reduction versus latanoprost and timolol monotherapy (IOP) | IOP (SD) at 52 weeks [2] | IOP reduction by 52 weeks from baseline ([2]; baseline 19.6 (2.9) mmHg) [%] | adverse events (pupil dilation, blurred vision) [3] | efficacy (change from baseline mean diurnal IOP), dose relation [3] | most common adverse events [4] | severity of adverse events [4] |
| --- | --- | --- | --- | --- | --- | --- | --- | --- | --- | --- |
| CC(=O)Oc1ccccc1C(=O)Oc1cccc(CO[N+](=O)[O-])c1 [NCX 4016, 2-(acetyloxy)benzoic acid-3-[(nitrooxy)methyl]phenyl ester] | capable of releasing NO |  |  |  |  |  |  |  |  |  |
| O=C(CCC/C=C\C[C@@H]1[C@@H](CC[C@@H](O)CCc2ccccc2)[C@H](O)C[C@@H]1O)OCCCCO[N+](=O)[O-] [latanoprostene bunod] |  | sustained IOP reduction during the 24 h period | 23.2 (3.4) mmHg | 1–2 mmHg | 14.4 (2.7) mmHg | 26 | neither pupil dilation nor blurred vision were reported as adverse events | dose-dependent | punctate keratitis and conjunctival hyperemia | mild |
| CC(C)(C)NC[C@H](O)COc1nsnc1N1CCOCC1 [timolol] |  | primarily effective during the daytime |  |  |  |  |  |  |  |  |
